Experimental data: article PMC2678021 (Cancer research, 2009)

Key:
[1] = tested on: parental Ba/F3 cells; assay: Growth of parental Ba/F3 control cells; assay type: cell-based; settings: 48 hours, media containing IL-3; up to highest concentration tested (5 μM)
[2] = target: Hck (Homo sapiens, UniProt P08631); assay: In vitro kinase assay, Hck; assay type: biochemical; settings: read-out: IC50 Hck, Table 1, triplicate or quadruplicate
[3] = tested on: BCR-ABL-induced phosphorylation of CrkL; assay: BCR-ABL-induced phosphorylation of CrkL in Ba/F3 cells; assay type: cell-based; settings: Ba/F3 cells expressing native and mutant isoforms of BCR-ABL; data not shown
[4] = target: Src E280V (Gallus gallus, UniProt P00523, E280V); assay: In vitro kinase assay, c-Src E280V kinase domain; assay type: biochemical; settings: read-out: IC50 Src E280V; Table 2; kinase domain construct
[5] = target: Src T338I (Gallus gallus, UniProt P00523, T338I); assay: In vitro kinase assay, c-Src T338I kinase domain; assay type: biochemical; settings: read-out: IC50 Src T338I; Table 2; kinase domain construct
[6] = target: Src F278H (Gallus gallus, UniProt P00523, F278H); assay: In vitro kinase assay, c-Src F278H kinase domain; assay type: biochemical; settings: read-out: IC50 Src F278H; Table 2; kinase domain construct
[7] = target: Src F382V (Gallus gallus, UniProt P00523, Y382V); assay: In vitro kinase assay, c-Src 382V kinase domain; assay type: biochemical; settings: read-out: IC50 Src F382V; Table 2; kinase domain construct

Chain of Hck (P08631 whole entry, species assumed, canonical isoform): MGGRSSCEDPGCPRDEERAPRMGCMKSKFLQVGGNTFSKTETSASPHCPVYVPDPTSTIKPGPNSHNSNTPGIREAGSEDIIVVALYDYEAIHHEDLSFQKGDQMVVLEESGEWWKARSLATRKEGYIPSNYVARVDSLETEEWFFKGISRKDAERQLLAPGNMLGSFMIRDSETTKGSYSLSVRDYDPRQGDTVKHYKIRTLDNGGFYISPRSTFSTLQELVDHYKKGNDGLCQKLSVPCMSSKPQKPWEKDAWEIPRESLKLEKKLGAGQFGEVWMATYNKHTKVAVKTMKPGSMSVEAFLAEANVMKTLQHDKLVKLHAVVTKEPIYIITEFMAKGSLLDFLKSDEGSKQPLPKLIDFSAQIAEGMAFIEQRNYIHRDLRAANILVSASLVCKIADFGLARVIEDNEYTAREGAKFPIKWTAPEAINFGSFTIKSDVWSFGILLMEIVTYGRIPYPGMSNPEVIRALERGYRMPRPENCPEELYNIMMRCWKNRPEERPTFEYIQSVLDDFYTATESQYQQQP

Q: What does the source list for `COc1ccc(Nc2ncnc(-c3cccnc3Nc3cc(NC(=O)c4ccc(CN5CCN(C)CC5)cc4)ccc3C)n2)cc1` [DSA8]?
A: Growth of parental Ba/F3 control cells [1]: minimally affected; IC50 [2]: 6.6 ± 2.3 nM; BCR-ABL-induced phosphorylation of CrkL [3]: block; IC50 [4]: 4 ± 1.2 nM; IC50 [5]: 18 ± 6 nM; IC50 [6]: 7 ± 2 nM; IC50 [7]: 4.4 ± 1.7 nM
